# Patent US20220144838A1, “Compounds as Inhibitors of Macrophage Migration Inhibitory Factor” (NANJING IMMUNOPHAGE BIOTECH CO., LTD., priority 2019, published 2022)
# Molecular target: T1, MIF (Homo sapiens, UniProt P14174)
# T1 sequence (P14174 2-115 limits assumed): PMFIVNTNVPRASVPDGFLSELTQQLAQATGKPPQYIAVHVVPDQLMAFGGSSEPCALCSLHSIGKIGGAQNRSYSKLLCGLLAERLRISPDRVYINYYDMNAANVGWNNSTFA
# Assay: MIF tautomerase assay using pHPP as substrate
# Type: biochemical
# Details: inhibition of the MIF enzyme in vitro; mean of multiple test results; read-out: Tautomerase Inhibition pIC50 (converted)
# Method in brief: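 Mean pIC50 derived from initial rates (absorbance progress-curve slopes) of MIF-catalyzed ketonic-to-enolic pHPP conversion, read as enol–borate complex. Reactions contained 1.5 mM substrate and 3 nM enzyme (final), 200 mM boric acid stock buffer, BSA and CHAPS, pH 6.0.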
row,IC50,Compound
1,1 to 9.77 µM,"Cc1cncc(-n2cnc3c(C)nc(N4CCN(c5ccc(O)cc5)CC4)nc32)c1 [Example 38, 4-(4-(6-methyl-9-(5-methylpyridin-3-yl)-9H-purin-2-yl)piperazin-1-yl)phenol]"
2,0.01 to 0.0977 µM,"O=C(O)CNC(=O)Cn1cnc2c(-n3ncc4ccccc43)nc(N3CCN(c4ccc(O)cc4)CC3)nc21 [Example 132, 2-(2-(2-(4-(4-hydroxyphenyl)piperazin-1-yl)-6-(1H-indazol-1-yl)-9H-purin-9-yl)acetamido)acetic acid]"
3,> 10 µM,"C[C@H](Nc1nc(N2CCN(c3ccc(O)cc3)CC2)nc2c1ncn2CCO)c1ccccc1 [Example 4, (S)-4-(4-(9-(2-hydroxyethyl)-6-((1-phenylethyl)amino)-9H-purin-2-yl)piperazin-1-yl)phenol]"
4,0.01 to 0.0977 µM,"Nc1nc(N2CCC(c3ccc(O)cc3)CC2)nc2c1ncn2-c1ccncc1 [Example 157, 4-(1-(6-amino-9-(pyridin-4-yl)-9H-purin-2-yl)piperidin-4-yl)phenol]"
5,0.01 to 0.0977 µM,"N#Cc1nn(-c2nc(N3CCN(c4ccc(O)cc4)CC3)nc3c2ncn3CC(=O)O)c2ccccc12 [Example 134, 2-(2-(4-(4-hy-droxyphenyl)piperazin-1-yl)-6-(3-cyano-1H-indazol-1-yl)-9H-purin-9-yl)acetic acid]"
6,0.1 to 0.977 µM,"OCCn1cnc2c(-n3cnc4ccccc43)nc(N3CCN(c4ccc(O)cc4)CC3)nc21 [Example 9, 4-(4-(6-(1H-benzo[d]imidazol-1-yl)-9-(2-hydroxyethyl)-9H-purin-2-yl)piperazin-1-yl)phenol]"
7,> 10 µM,"OC1(c2cn[nH]c2)CN(c2ncc3ncn(-c4ccncc4)c3n2)C1 [Example 200, 3-(1H-pyrazol-4-yl)-1-(9-(pyridin-4-yl)-9H-purin-2-yl)azetidin-3-ol]"
8,1 to 9.77 µM,"CCC(CO)n1cnc2c(N3CCc4ccccc43)nc(N3CCN(c4ccc(O)cc4)CC3)nc21 (centres unmarked) [Example 30, 4-(4-(9-(1-hydroxybutan-2-yl)-6-(indolin-1-yl)-9H-purin-2-yl)piperazin-1-yl)phenol]"
9,0.1 to 0.977 µM,"Oc1ccc(N2CCN(c3nc(N4CCNCC4)c4ncn(-c5ccncc5)c4n3)CC2)cc1 [Example 178, 4-(4-(6-(piperazin-1-yl)-9-(pyridin-4-yl)-9H-purin-2-yl)piperazin-1-yl)phenol]"
10,0.1 to 0.977 µM,"Oc1ccc(N2CCN(c3nc(-n4ncc5ccccc54)c4ncn(-c5cccnc5)c4n3)CC2)cc1 [Example 12, 4-(4-(6-(1H-indazol-1-yl)-9-(pyridin-3-yl)-9H-purin-2-yl)piperazin-1-yl)phenol]"
11,> 10 µM,"Cc1nc(N2CCN(c3ccc(O)cc3)CC2)nc2c1ncn2-c1cc(Cl)cnn1 [Example 63, 4-(4-(9-(5-chloropyridazin-3-yl)-6-methyl-9H-purin-2-yl)piperazin-1-yl)phenol]"
12,0.1 to 0.977 µM,"OCC1CCN(c2nc(N3CCN(c4ccc(O)cc4)CC3)nc3c2ncn3-c2cccnc2)C1 (centres unmarked) [Example 94, 4-(4-(6-(3-(hydroxymethyl)pyrrolidin-1-yl)-9-(pyridin-3-yl)-9H-purin-2-yl)piperazin-1-yl)phenol]"
13,> 10 µM,"Nc1nc(N2CCN(c3ccc(C(=O)O)cn3)CC2)nc2c1ncn2-c1ccncc1 [Example 193, 6-(4-(6-amino-9-(pyridin-4-yl)-9H-purin-2-yl)piperazin-1-yl)nicotinic acid]"
14,1 to 9.77 µM,"CCOc1ncccc1-n1cnc2c(N)nc(N3CCN(c4ccc(O)cc4)CC3)nc21 [Example 83, 4-(4-(6-amino-9-(2-ethoxypyridin-3-yl)-9H-purin-2-yl)piperazin-1-yl)phenol]"
15,1 to 9.77 µM,"Oc1ccc(N2CCN(c3nc(NC4CCCC4)c4ncn(-c5cccnc5)c4n3)CC2)cc1 [Example 96, 4-(4-(6-(cyclopentylamino)-9-(pyridin-3-yl)-9H-purin-2-yl)piperazin-1-yl)phenol]"
16,0.1 to 0.977 µM,"COc1ccc(-n2cnc3c(N)nc(N4CCN(c5ccc(O)cc5)CC4)nc32)cn1 [Example 85, 4-(4-(6-amino-9-(6-methoxypyridin-3-yl)-9H-purin-2-yl)piperazin-1-yl)phenol]"
17,1 to 9.77 µM,"C[C@H]1CN(c2ccc(O)cc2)CCN1c1nc(-n2ncc3ccccc32)c2ncn(CC(=O)O)c2n1 [Example 15, (S)-2-(2-(4-(4-hydroxyphenyl)-2-methylpiperazin-1-yl)-6-(1H-indazol-1-yl)-9H-purin-9-yl)acetic acid]"
18,> 10 µM,"Nc1nc(N2CCN(c3ccc(CCO)cc3)CC2)nc2c1ncn2-c1ccncc1 [Example 191, 2-(4-(4-(6-amino-9-(pyridin-4-yl)-9H-purin-2-yl)piperazin-1-yl)phenyl)ethan-1-ol]"
19,1 to 9.77 µM,"O=C(O)Cn1cnc2c(-c3cccc4[nH]ccc34)nc(N3CCN(c4ccc(O)cc4)CC3)nc21 [Example 118, 2-(2-(4-(4-hydroxyphenyl)piperazin-1-yl)-6-(1H-indol-4-yl)-9H-purin-9-yl)acetic acid]"
20,0.1 to 0.977 µM,CCC(CO)Nc1nc(N2CCN(c3ccc(O)cc3)CC2)nc2c1ncn2-c1cccnc1 (centres unmarked) [Example 114]
21,> 10 µM,"Cc1nc(N2CCC(O)(c3ccc(O)cc3)CC2)nc2c1ncn2-c1ccc(C#N)cc1 [Example 185, 4-(2-(4-hydroxy-4-(4-hydroxyphenyl)piperidin-1-yl)-6-methyl-9H-purin-9-yl)benzonitrile]"
22,0.1 to 0.977 µM,"O=C(O)CCn1cnc2c(N3CCc4ccccc43)nc(N3CCN(c4ccc(O)cc4)CC3)nc21 [Example 8, 3-(2-(4-(4-hydroxyphenyl)piperazin-1-yl)-6-(indolin-1-yl)-9H-purin-9-yl)propanoic acid]"
23,> 10 µM,"Nc1nc(N2CC(O)(c3nccs3)C2)nc2c1ncn2-c1ccncc1 [Example 201, 1-(6-amino-9-(pyridin-4-yl)-9H-purin-2-yl)-3-(thiazol-2-yl)azetidin-3-ol]"
24,0.01 to 0.0977 µM,"COc1cccc2c1cnn2-c1nc(N2CCN(c3ccc(O)cc3)CC2)nc2c1ncn2CC(=O)O [Example 107, 2-(6-(4-methoxy-1H-indazol-1-yl)-2-(4-(4-hydroxyphenyl)piperazin-1-yl)-9H-purin-9-yl)acetic acid]"
25,1 to 9.77 µM,"COc1ccc2cnn(-c3nc(N4CCN(c5ccc(O)cc5)CC4)nc4c3ncn4CC(=O)O)c2c1 [Example 50, 2-(2-(4-(4-hydroxyphenyl)piperazin-1-yl)-6-(6-methoxy-1H-indazol-1-yl)-9H-purin-9-yl)acetic acid]"
26,> 10 µM,"OCCn1cnc2c(-n3ncc4ccccc43)nc(N3CCN(c4ccc(CO)cn4)CC3)nc21 [Example 154, 2-(2-(4-(5-(hydroxymethyl)pyridin-2-yl)piperazin-1-yl)-6-(1H-indazol-1-yl)-9H-purin-9-yl)ethan-1-ol]"
27,0.01 to 0.0977 µM,"OCC(CO)Nc1nc(N2CCN(c3ccc(O)cc3)CC2)nc2c1ncn2-c1ccncc1 [Example 173, 2-((2-(4-(4-hydroxyphenyl)piperazin-1-yl)-9-(pyridin-4-yl)-9H-purin-6-yl)amino)propane-1,3-diol]"
28,> 10 µM,"Cc1nc(N2CCC(O)(c3ccc(O)cc3)CC2)nc2c1ncn2CCCCC(=O)O [Example 160, 5-(2-(4-hydroxy-4-(4-hydroxyphenyl)piperidin-1-yl)-6-methyl-9H-purin-9-yl)pentanoic acid]"

row,Compound,IC50
1,"O=C(O)Cn1cnc2c(-c3c[nH]c4ccccc34)nc(N3CCN(c4ccc(O)cc4)CC3)nc21 [Example 25, 2-(2-(4-(4-hydroxyphenyl)piperazin-1-yl)-6-(1H-indol-3-yl)-9H-purin-9-yl)acetic acid]",1 to 9.77 µM
